Test results: ChEMBL document CHEMBL1201862, “PubChem BioAssay data set” (2004)
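Briefly, cells in 96-well plates were exposed to five compound concentrations for 48 h, and endpoints were estimated by linear interpolation. GI50 = concentration required for 50% inhibition of growth.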 The source made the active and inactive calls. Rule as the data show it: active = GI50 up to about 1.1 µM and inactive = higher.

How the values were obtained:
Experiment in all cases: NCI tumour cell line growth inhibition, 48 h
[1] = tested on: A498
[2] = tested on: COLO 205
[3] = tested on: HT-29
[4] = tested on: IGROV-1
[5] = tested on: K562
[6] = tested on: M14
[7] = tested on: MDA-MB-231
[8] = tested on: MDA-MB-435
[9] = tested on: Malme-3M
[10] = tested on: NCI-H226
[11] = tested on: NCI-H23
[12] = tested on: NCI-H460
[13] = tested on: RXF 393
[14] = tested on: SK-MEL-2
[15] = tested on: SW-620
[16] = tested on: UACC-257
[17] = tested on: EKVX
[18] = tested on: Hs-578T
[19] = tested on: SK-OV-3

Measured: GI50

O=C(/C=C/c1ccc(O)c(O)c1)OCCc1cccc2ccccc12
inactive: [1] 11.5 µM | [2] 5.69 µM | [3] 13.4 µM | [4] 2.76 µM | [5] 2.77 µM | [6] 5.65 µM | [7] 2.33 µM | [8] 2.02 µM | [9] 6.5 µM | [10] 22 µM | [11] 3.72 µM | [12] 12.1 µM | [13] 9.44 µM | [14] 3.44 µM | [15] 5.07 µM | [16] 11.1 µM

COc1ccc(N[S+]([O-])c2ccc(OC)cc2)cc1 (configuration not stated)
inactive: [2] 72.1 µM | [17] 88.1 µM | [3] 39.9 µM | [18] 34 µM | [4] 5.53 µM | [5] 26.1 µM | [6] > 100 µM | [7] 37.9 µM | [8] 15.9 µM | [9] 25.5 µM | [10] 55.5 µM | [11] > 100 µM | [12] 29 µM | [14] 16.9 µM | [15] 64.6 µM | [16] 69 µM

O=C(CC(O)(C(F)(F)F)C(F)(F)F)c1cccs1
inactive: [2] > 10 µM | [3] > 10 µM | [18] > 10 µM | [4] > 10 µM | [5] > 10 µM | [6] > 10 µM | [7] > 10 µM | [8] > 10 µM | [9] > 10 µM | [11] > 10 µM | [19] > 10 µM | [15] > 10 µM | [16] > 10 µM

O=C1NC2(CCN(CCCC3(c4ccc(F)cc4)OCCO3)CC2)Oc2ccccc21
inactive: [1] 21.3 µM | [2] 86.7 µM | [17] 39.4 µM | [3] 42.4 µM | [4] > 100 µM | [5] 64.4 µM | [6] 73.5 µM | [7] > 100 µM | [8] > 100 µM | [9] > 100 µM | [10] > 100 µM | [11] > 100 µM | [12] 91.2 µM | [13] > 100 µM | [19] > 100 µM | [15] > 100 µM | [16] 57.3 µM

O=c1[nH]c2nc3ccccc3c(=O)n2/c1=C/c1ccc(Cl)cc1
inactive: [2] 38.5 µM | [18] 20.8 µM | [6] 36.9 µM | [7] 58.1 µM | [8] 21.7 µM | [9] 28.9 µM | [11] 25.8 µM | [13] 46.5 µM | [14] > 100 µM | [19] > 100 µM | [15] 17.9 µM | [16] 30.7 µM

CNC1C(O)C(NC)C2OC3(O)C(=O)CC(C)OC3OC2C1O (configuration not stated)
inactive: [2] > 100 µM | [17] > 100 µM | [3] > 100 µM | [18] > 100 µM | [4] > 100 µM | [5] > 100 µM | [6] > 100 µM | [7] > 100 µM | [8] > 100 µM | [10] > 100 µM | [11] > 100 µM | [12] > 100 µM | [13] > 100 µM | [14] > 100 µM | [19] > 100 µM | [15] > 100 µM | [16] > 100 µM

O=C1c2ccccc2-c2nc(-c3cccnc3)cc3c2c1nc1ccccc13
inactive: [2] > 100 µM | [17] > 100 µM | [3] > 100 µM | [18] > 100 µM | [4] 25.5 µM | [5] > 100 µM | [6] 14.3 µM | [7] > 100 µM | [8] 18.2 µM | [9] 92.9 µM | [10] > 100 µM | [11] 88.3 µM | [12] 22.8 µM | [14] > 100 µM | [19] > 100 µM | [15] > 100 µM | [16] > 100 µM

CC[C@H](CCCC[C@H]1CC[C@@H]2CC(=O)C[C@H]12)OC
inactive: [2] > 100 µM | [17] 60.1 µM | [3] 59 µM | [18] > 100 µM | [4] > 100 µM | [5] 13 µM | [6] > 100 µM | [7] > 100 µM | [8] > 100 µM | [9] > 100 µM | [10] > 100 µM | [11] 35.5 µM | [12] > 100 µM | [14] > 100 µM | [19] > 100 µM | [16] 43.5 µM

COC(=O)C1=C(O)C(C(=O)OC)[C@]2(O)[C@@H](C(=O)OC)[C@H]1[C@H](C)[C@@H](c1ccccc1)[C@@H]2C(=O)OC (some centres not stated)
inactive: [2] 77.3 µM | [17] 55.7 µM | [3] > 100 µM | [4] 16.8 µM | [5] 57.4 µM | [6] 88.1 µM | [7] > 100 µM | [8] 46.1 µM | [9] 42.2 µM | [10] 78.9 µM | [11] 44.4 µM | [12] 69.2 µM | [13] > 100 µM | [14] 96.4 µM | [19] > 100 µM | [15] 44.3 µM | [16] > 100 µM

Cc1ccc(-n2c(C)n[nH]c2=O)cc1
inactive: [2] > 100 µM | [17] > 100 µM | [3] > 100 µM | [4] > 100 µM | [5] > 100 µM | [6] > 100 µM | [7] > 100 µM | [8] > 100 µM | [11] > 100 µM | [13] > 100 µM | [14] > 100 µM | [19] > 100 µM | [15] > 100 µM | [16] > 100 µM

CC12C=CC(C)(C3C(=O)C4C(C(=O)C31)C1(C)C=CC4(C)[S+]1[O-])[S+]2[O-] (configuration not stated)
inactive: [2] 34.9 µM | [17] > 100 µM | [3] 47.6 µM | [18] > 100 µM | [4] 83.9 µM | [6] > 100 µM | [7] > 100 µM | [9] 83.4 µM | [10] > 100 µM | [11] > 100 µM | [12] 53.1 µM | [13] > 100 µM | [19] > 100 µM | [16] 71.9 µM

CC1(C)N=C(N)N=C(N)N1c1ccc(OCC(=O)Nc2cccc(S(=O)(=O)F)c2)c(Cl)c1
inactive: [2] 15.9 µM | [3] 5.16 µM | [18] 12.2 µM | [4] 7 µM | [5] 1.66 µM | [6] 13.9 µM | [7] > 31.6 µM | [8] 4.52 µM | [10] 1.8 µM | [11] 4.95 µM | [12] 5.48 µM | [14] > 100 µM | [19] > 81.1 µM | [15] 3.71 µM | [16] 2.98 µM

O=c1c2cc(Br)ccc2oc2ccc(Br)cc12
inactive: [1] > 100 µM | [2] > 100 µM | [3] > 100 µM | [4] > 100 µM | [5] > 100 µM | [6] > 100 µM | [7] > 100 µM | [8] > 100 µM | [9] > 100 µM | [10] > 100 µM | [11] > 100 µM | [12] > 100 µM | [13] > 100 µM | [14] > 100 µM | [15] > 100 µM | [16] > 100 µM

CC1(C)C(=O)C(C)(C)C1=S
inactive: [1] > 100 µM | [2] > 100 µM | [17] > 100 µM | [3] > 100 µM | [4] > 100 µM | [5] > 100 µM | [6] > 100 µM | [9] > 100 µM | [10] > 100 µM | [11] > 100 µM | [12] > 100 µM | [14] > 100 µM | [19] > 100 µM | [15] > 100 µM | [16] > 100 µM

CCOP(=O)(C/C(O)=C1\C(=O)C(CCCNC(=O)OC(C)(C)C)N(Cc2ccc(OC)c(OC)c2)C1=O)OCC (configuration not stated)
inactive: [1] > 100 µM | [2] > 100 µM | [17] > 100 µM | [3] > 100 µM | [4] > 100 µM | [5] > 100 µM | [6] > 100 µM | [9] > 100 µM | [10] 77.4 µM | [11] > 100 µM | [12] > 100 µM | [13] > 100 µM | [14] > 100 µM | [15] > 100 µM | [16] > 100 µM

CCCCCCCCCCCCCCCCP(=O)(O)OP(=O)(O)OCC1OC(n2cnc3c(N)ncnc32)C(O)C1O (configuration not stated)
inactive: [2] 32.7 µM | [17] 92 µM | [3] 20.3 µM | [18] 26.4 µM | [4] 16.3 µM | [5] 25.8 µM | [6] 27.5 µM | [7] 35.1 µM | [8] 30.6 µM | [9] 22.2 µM | [10] 20.9 µM | [11] 26.8 µM | [12] 24.5 µM | [14] 42.5 µM | [19] 28.6 µM | [15] 29 µM | [16] 23.7 µM

O=c1ccc(-c2ccc(-n3ccnc3)cc2)nn1CCO
inactive: [1] > 100 µM | [2] > 100 µM | [17] 46.6 µM | [3] > 100 µM | [18] > 100 µM | [4] > 100 µM | [6] > 100 µM | [8] > 100 µM | [9] > 100 µM | [11] > 100 µM | [12] > 100 µM | [13] > 100 µM | [19] > 100 µM | [15] > 100 µM | [16] > 100 µM
